Assay results from PMC8779355, “In Silico and In Vitro Structure–Activity Relationship of Mastoparan and Its Analogs” (Molecules, 2022).
Values after ≈ are worked out from the molar mass of the structure shown. Residues, ends and D or L forms follow the SMILES beside them.

Experiments:
Conditions in all cases: nutrient broth, 1 × 10^5 CFU/mL, peptide 0.1 to 50 μg/mL, O.D.600 at 18 h, MIC = growth inhibition greater than 90%, three independent experiments in triplicate
S. aureus ATCC25923 = assay type: cell-based, Staphylococcus auerus
Procedure: (§1) The biological activities of MpVT and its analogs were investigated by assaying antimicrobial activities and by studying the hemolysis activity. The minimal inhibitory concentrations (MIC) of the peptides were determined based on methods described by Anunthawan et al.. […] The MpVT4-7 could not detect antibacterial activity when using a peptide concentration lower than 50 μg/mL. The E. coli strains that were the most susceptible against MpVT peptides were selected for visualizing the bacterial morphology when treated with these peptides using a scanning electron microscope. The normal and abnormal morphologies of bacteria cells were visualized after 60 min treatment with the MpVT peptides (Figure 6).
(§2) The microorganisms; Staphylococcus auerus ATCC 27,853 (DMST 4739), Staphylococcus auerus ATCC 25923, Bacillus subtilis ATCC663, Escherichia coli 0157:H7, Escherichia coli DH5α, and Klebsiella pneumoniae ATCC27736 (DMST4739) were used to determine the MIC of MpVT and its analogs. The bacterial strains were inoculated to enter their log phases, and then the suspension was diluted in nutrient broth. The microorganisms were prepared at a final concentration of 1 × 10^5 CFU/mL. The peptides’ concentrations, ranging from 0.1 to 50 μg/mL, were determined. Serial doubling dilutions of various concentrations of MpVTs were made into a nutrient broth to a final volume of 100 μL in each well of a 96-well plate. A% inhibition = 100 − (O.D.600 at 18 h − O.D.600 at immediate treatment × 100/O.D.600 at […] of control − O.D.600 at 18 h of control − O.D.600 at immediate treatment of control). (1)

E. coli DH5α = assay type: cell-based, Escherichia coli
Procedure: as §1, §2

E. coli 0157:H7 = assay type: cell-based, Escherichia coli
Procedure: as §1, §2

[1] = system: K. pneumoniae ATCC27736 (DMST4739); assay type: cell-based, Klebsiella pneumoniae
Procedure: as §1, §2

[2] = system: P. aeruginosa ATCC 27,853 (DMST 4739); assay type: cell-based
Procedure: as §1, §2

B. subtilis ATCC663 = assay type: cell-based, Bacillus subtilis
Procedure: as §1, §2

Structure (SMILES)	MIC (S. aureus ATCC25923) [µg/mL]	MIC (E. coli DH5α) [µg/mL]	MIC (E. coli 0157:H7) [µg/mL]	MIC [1] [µg/mL]	MIC [2] [µg/mL]	MIC (B. subtilis ATCC663) [µg/mL]
CC[C@H](C)[C@H](N)C(=O)N[C@@H](CC(N)=O)C(=O)N[C@@H](CC(C)C)C(=O)N[C@@H](CCCCN)C(=O)N[C@@H](C)C(=O)N[C@H](C(=O)N[C@@H](C)C(=O)N[C@@H](C)C(=O)N[C@@H](Cc1ccccc1)C(=O)N[C@@H](C)C(=O)N[C@@H](CCCCN)C(=O)N[C@@H](CCCCN)C(=O)N[C@@H](Cc1ccccc1)C(=O)N[C@H](C(=O)O)[C@@H](C)CC)[C@@H](C)CC [MpVT1] (H-INLKAIAAFAKKFI-OH)	12.50 (≈ 8.08 µM)	0.39 (≈ 0.252 µM)	6.25 (≈ 4.04 µM)	6.25 (≈ 4.04 µM)	6.25 (≈ 4.04 µM)	3.125 (≈ 2.02 µM)
CC[C@H](C)[C@H](N)C(=O)N[C@@H](CC(N)=O)C(=O)N[C@@H](CC(C)C)C(=O)N[C@@H](CCCCN)C(=O)N[C@@H](C)C(=O)N[C@H](C(=O)N[C@@H](C)C(=O)N[C@@H](C)C(=O)N[C@@H](Cc1ccccc1)C(=O)N[C@@H](C)C(=O)N[C@@H](CCCCN)C(=O)N[C@@H](C)C(=O)N[C@@H](CC(C)C)C(=O)N[C@H](C(=O)O)[C@@H](C)CC)[C@@H](C)CC [MpVT3] (H-INLKAIAAFAKALI-OH)	50.00 (≈ 34.3 µM)	0.78 (≈ 0.535 µM)	50.00 (≈ 34.3 µM)	25.00 (≈ 17.2 µM)	6.25 (≈ 4.29 µM)	12.50 (≈ 8.58 µM)
CC[C@H](C)[C@H](NC(=O)[C@H](Cc1ccccc1)NC(=O)[C@H](CCCCN)NC(=O)[C@H](CCCCN)NC(=O)[C@H](C)NC(=O)[C@H](Cc1ccccc1)NC(=O)[C@H](C)NC(=O)[C@H](C)NC(=O)[C@@H](NC(=O)[C@H](C)NC(=O)[C@@H](N)CCCCN)[C@@H](C)CC)C(=O)O [MpVT4] (H-KAIAAFAKKFI-OH)	>50.00	25.00 (≈ 20.7 µM)	>50.00	>50.00	25.0 (≈ 20.7 µM)	>50.00
CC[C@H](C)[C@H](NC(=O)[C@H](Cc1ccccc1)NC(=O)[C@H](Cc1ccccc1)NC(=O)[C@H](CCCCN)NC(=O)[C@H](CCCCN)NC(=O)[C@H](C)NC(=O)[C@H](Cc1ccccc1)NC(=O)[C@H](C)NC(=O)[C@H](C)NC(=O)[C@@H](NC(=O)[C@H](C)NC(=O)[C@@H](N)CCCCN)[C@@H](C)CC)C(=O)O [MpVT5] (H-KAIAAFAKKFFI-OH)	>50.00	6.25 (≈ 4.61 µM)	>50.00	>50.00	>50.00	>50.00
CC[C@H](C)[C@H](NC(=O)[C@H](Cc1ccccc1)NC(=O)[C@H](CC(C)C)NC(=O)[C@H](C)NC(=O)[C@H](CCCCN)NC(=O)[C@H](C)NC(=O)[C@H](Cc1ccccc1)NC(=O)[C@H](C)NC(=O)[C@H](C)NC(=O)[C@@H](NC(=O)[C@H](C)NC(=O)[C@@H](N)CCCCN)[C@@H](C)CC)C(=O)O [MpVT6] (H-KAIAAFAKALFI-OH)	>50.00	12.50 (≈ 9.89 µM)	>50.00	>50.00	>50.00	>50.00
CC[C@H](C)[C@H](NC(=O)[C@H](Cc1ccccc1)NC(=O)[C@H](CC(C)C)NC(=O)[C@H](CCCCN)NC(=O)[C@H](C)NC(=O)[C@H](C)NC(=O)[C@H](Cc1ccccc1)NC(=O)[C@H](C)NC(=O)[C@H](C)NC(=O)[C@@H](NC(=O)[C@H](C)NC(=O)[C@@H](N)CCCCN)[C@@H](C)CC)C(=O)O [MpVT7] (H-KAIAAFAAKLFI-OH)	>50.00	6.25 (≈ 4.95 µM)	>50.00	>50.00	>50.00	50.00 (≈ 39.6 µM)
CC[C@H](C)[C@H](N)C(=O)N[C@@H](CC(N)=O)C(=O)N[C@@H](CC(C)C)C(=O)N[C@@H](CCCCN)C(=O)N[C@@H](C)C(=O)N[C@H](C(=O)N[C@@H](C)C(=O)N[C@@H](C)C(=O)N[C@@H](Cc1ccccc1)C(=O)N[C@@H](C)C(=O)N[C@@H](CCCCN)C(=O)N[C@@H](CCCCN)C(=O)N[C@@H](CC(C)C)C(=O)N[C@H](C(=O)O)[C@@H](C)CC)[C@@H](C)CC [MpVT] (H-INLKAIAAFAKKLI-OH)	50.00 (≈ 33 µM)	3.125 (≈ 2.06 µM)	50.00 (≈ 33 µM)	25.00 (≈ 16.5 µM)	25.00 (≈ 16.5 µM)	25.00 (≈ 16.5 µM)
